Experimental data: paper PMC6754302 (Cell chemical biology, 2019)
“Also recorded” adds a separate entry of the source.

Legend:
Recombinant C6 enzyme [1] = molecular target: T1, Recombinant C6 enzyme (Homo sapiens, UniProt P55212); details: 10 μM inhibitor
T1 sequence (P55212 24-179 limits assumed): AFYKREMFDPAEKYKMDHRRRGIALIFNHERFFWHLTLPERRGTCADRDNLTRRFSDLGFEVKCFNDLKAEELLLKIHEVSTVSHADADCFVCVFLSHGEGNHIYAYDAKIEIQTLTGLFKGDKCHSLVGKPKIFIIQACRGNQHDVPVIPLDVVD
T1 sequence (P55212 194-293 limits assumed): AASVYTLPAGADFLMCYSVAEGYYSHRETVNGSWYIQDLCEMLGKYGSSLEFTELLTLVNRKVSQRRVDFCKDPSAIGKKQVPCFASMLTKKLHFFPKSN

caspase-6 (C6) [2] = molecular target: T2, caspase-6 (C6) (Homo sapiens, UniProt P55212); assay: C6 activity assay using the VEID-AFC peptide as a substrate; assay type: biochemical
T2 sequence (P55212 24-179 limits assumed): T1 sequence (P55212 24-179 limits assumed)
T2 sequence (P55212 194-293 limits assumed): T1 sequence (P55212 194-293 limits assumed)

caspase-6 (C6) [3] = molecular target: T2, caspase-6 (C6); assay: TR-FRET-based C6 activity assay with HTT1–1212 as substrate; assay type: biochemical; details: for shift of dose-response curve with pre-incubation time: 0 min vs 60 min pre-incubation of C6 with compound
[4] = molecular target: T3, intracellular C6 activity (Homo sapiens, UniProt P55212); assay: Intracellular lamin A cleavage ELISA; assay type: cell-based
T3 sequence (P55212 24-293): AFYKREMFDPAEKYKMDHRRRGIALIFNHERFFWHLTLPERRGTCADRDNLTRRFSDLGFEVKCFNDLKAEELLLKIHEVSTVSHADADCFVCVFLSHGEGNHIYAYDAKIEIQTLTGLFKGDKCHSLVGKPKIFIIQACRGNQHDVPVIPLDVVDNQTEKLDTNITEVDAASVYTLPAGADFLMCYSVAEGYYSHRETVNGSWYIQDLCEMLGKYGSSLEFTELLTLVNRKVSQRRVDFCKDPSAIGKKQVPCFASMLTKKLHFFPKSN

Recombinant C6 enzyme [5] = molecular target: T1, Recombinant C6 enzyme; assay: Washout experiment; assay type: biochemical; details: read-out: inhibition of C6 activity after washout
C6-HTT interaction = molecular target: T4, C6-HTT interaction (Homo sapiens, UniProt P55212); assay: Co-immunoprecipitation of HTT with DDK-tagged C6 from co-transfected COS-7 cells; assay type: cell-based
T4 sequence (P55212 24-293): T3 sequence (P55212 24-293)

pro-C6 (C6 zymogen) [6] = molecular target: T5, pro-C6 (C6 zymogen) (Homo sapiens, UniProt P55212); assay: LE22 labelling of C6 in lysates of transfected COS-7 cells; assay type: cell-based
T5 sequence (P55212 1-293): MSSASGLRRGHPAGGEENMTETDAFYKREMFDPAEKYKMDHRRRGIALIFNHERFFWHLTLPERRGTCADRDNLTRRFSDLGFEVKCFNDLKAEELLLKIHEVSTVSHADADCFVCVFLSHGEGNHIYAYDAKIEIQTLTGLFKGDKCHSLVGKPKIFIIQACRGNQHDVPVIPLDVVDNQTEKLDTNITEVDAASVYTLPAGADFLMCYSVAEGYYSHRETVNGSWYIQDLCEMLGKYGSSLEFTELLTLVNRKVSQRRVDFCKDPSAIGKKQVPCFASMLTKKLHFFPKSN

pro-C6 (C6 zymogen) [7] = assay: as above; assay type: cell-based, human; details: 10 μM in the culture medium, co-transfection with mHTT1–586
C6 = molecular target: T6, C6 (Homo sapiens, UniProt P55212); assay type: cell-based; details: for intracellular C6-mediated cleavage of HTT1–1212 (HTT1–586 fragment): COS-7 cells co-transfected with C6 and HTT1–1212, compound in the media
T6 sequence (P55212 24-293): T3 sequence (P55212 24-293)

zVAD-fmk
LE22 labelling of C6 after inhibitor pre-incubation (Recombinant C6 enzyme [1]): prevented labelling of C6 with LE22

O=c1oc(C#Cc2ccccc2)nc(O)c1Cc1ccccc1 [PG3d, 5-Benzyl-4-hydroxy-2-(phenylethynyl)-6H-1,3-oxazin-6-one]
inhibitory effect on C6-mediated cleavage of small peptide substrates (VEID-AFC) (caspase-6 (C6) [2]): minimal inhibitory effect | inhibition of HTT proteolysis (caspase-6 (C6) [3]): strong inhibition | shift of dose-response curve with pre-incubation time (caspase-6 (C6) [3]): shift towards a lower IC50 value | inhibition of lamin A proteolysis [4]: strong inhibition | inhibition at 10 µM (Recombinant C6 enzyme [5]): 100% | LE22 labelling of C6 after inhibitor pre-incubation (Recombinant C6 enzyme [1]): did not block accessibility of the active site | reduction in HTT co-immunoprecipitation (C6-HTT interaction; PG3d 10 μM in the media, mHTT1–1212): 50% | mHTT1–586-induced increase of LE22 binding to pro-C6 (C6wt) (pro-C6 (C6 zymogen) [6]; 10 μM in the culture medium, co-transfection with mHTT1–586): completely reversed | LE22 labelling for deltaPro and D23A C6 (pro-C6 (C6 zymogen) [7]): normalized the amount of LE22 labelling | intracellular C6-mediated cleavage of HTT1–1212 (HTT1–586 fragment) (C6): inhibited

CC(C)[C@H](NC(=O)c1ccc2ccccc2n1)C(=O)N[C@@H](CC(=O)O)C(=O)COc1c(F)cccc1F [Q-VD-OPh]
effect on co-immunoprecipitation of HTT with C6 (C6-HTT interaction; Q-VD-OPh 3 μM): not prevented; also recorded: no significant difference | proportion of pro-C6 and p18-C6 labelled with LE22 (pro-C6 (C6 zymogen) [6]; C6-transfected cells treated with Q-VD-OPh prior to lysis): decreased | intracellular generation of active C6 subunits (p18) (C6; COS-7 cells co-transfected with C6 and HTT1–1212, Q-VD-OPh 3 μM): reduces the intracellular generation of active C6 subunits | intracellular C6-mediated cleavage of HTT1–1212 (HTT1–586 fragment) (C6): lowers HTT1–586 fragment levels

VDVAD-CHO [reference compound]
shift of dose-response curve with pre-incubation time (caspase-6 (C6) [3]): did not exhibit time-dependent behaviour | LE22 labelling of C6 after inhibitor pre-incubation (Recombinant C6 enzyme [1]): is replaced by the irreversible binding of the LE22 probe
